Experimental data: patent publication US9295651B2, “Nanoconjugates and nanoconjugate formulations” (priority 2009, dated 2016)

What was measured:
[1] = Lyophilization of PLGA-mPEG NPs in the presence of lyoprotectants, reconstitution with water, DLS; type: physicochemical; set-up: key to Aggr. (visible large aggregates): Y = aggregates observed; N = no aggregates observed; details: for Size in nm: PLGA-mPEG NPs lyophilized and reconstituted; for prevention of NP aggregation during lyophilization (in words): PLGA-mPEG5k NPs, lyoprotectant/NP mass ratio up to 10
Protocol: Lyophilization of PLGA-mPEG NPs in the presence of lyoprotectants. An acetone solution of PLGA-mPEG (5 mg/mL, 100 μL) was added dropwise into a vigorously stirred water solution (4 mL) containing the NCs to make the PLGA-mPEG NPs. A lyoprotectant was added to the vigorously stirred NC solution at the selected lyoprotectant/NC mass ratio (varying from 2 to 20). The solution was then lyophilized, reconstituted with 2 mL water and stirred for 5 minutes. The sizes of the resulting NCs were analyzed by DLS.

[2] = test system: LLC tumors; test: Tumor prevention/inhibition study, LLC cells co-injected subcutaneously with test article; type: in vivo, C57B1/6 female mice; details: at 25 days, 5 mg/kg in 1:1 Cremophor EL/ethanol
Protocol: To access the ability of paclitaxel-loaded nanoparticles to inhibit establishment of lung cancer in an in vivo model mimicking microscopic disease that can remain when the surgical margin is close to the tumor, Ptxl-PLA NCs were evaluated in a rapidly growing subcutaneous tumor model. Specifically, the ability of Ptxl-PLA NCs to prevent establishment of rapidly growing LLC tumors in C57B1/6 female mice compared to Ptxl alone (in a clinical formulation) and controls without any drugs was assessed. In these experiments, 1,000,000 LLC tumor cells plus Ptxl-LA25/PLGA-mPEG nanoparticles containing a total dose of 5 or 50 mg/kg incorporated Ptxl were injected subcutaneously into the flank of a mouse. Other groups received the injection of 1,000,000 LLC cells alone or LLC cells mixed with Ptxl solubilized with 1:1 Cremophor EL/ethanol as used clinically at 5 mg/kg dosage.

| Compound | Size in nm ([1]; lyoprotectant/NP mass ratio 2) | Size in nm ([1]; lyoprotectant/NP mass ratio 10) | Aggr. (visible large aggregates) ([1]; lyoprotectant/NP mass ratio 2) | Distr. No. (number of particle size distributions) ([1]; lyoprotectant/NP mass ratio 2) | PDI ([1]; lyoprotectant/NP mass ratio 2) | SL/SO (ratio of lyophilized NP size to pre-lyophilized NP size) ([1]; lyoprotectant/NP mass ratio 2) | Aggr. (visible large aggregates) ([1]; lyoprotectant/NP mass ratio 10) | Distr. No. (number of particle size distributions) ([1]; lyoprotectant/NP mass ratio 10) | PDI ([1]; lyoprotectant/NP mass ratio 10) | SL/SO (ratio of lyophilized NP size to pre-lyophilized NP size) ([1]; lyoprotectant/NP mass ratio 10) | prevention of NP aggregation during lyophilization (in words) [1] | tumors at injection site [2] |
| --- | --- | --- | --- | --- | --- | --- | --- | --- | --- | --- | --- | --- |
| OC[C@H]1O[C@@](CO)(O[C@H]2O[C@H](CO)[C@@H](O)[C@H](O)[C@H]2O)[C@@H](O)[C@@H]1O [Sucrose] | 245.2 nm | 217.5 nm | Y | 2 | 0.227 | 3.93 | Y | 2 | 0.220 | 3.49 |  |  |
| OC[C@H]1O[C@H](O[C@H]2[C@H](O)[C@@H](O)C(O)O[C@@H]2CO)[C@H](O)[C@@H](O)[C@@H]1O (mixture of isomers) [Maltose] | >1000 nm | 220.4 nm | Y |  |  |  | Y | 2 | 0.288 | 3.54 |  |  |
| NCC(=O)O [Glycine] |  | >1000 nm |  |  |  |  | Y |  |  |  | unable to prevent NP aggregation |  |
| OC[C@@H](O)[C@@H](O)[C@H](O)[C@@H](O)CO [Sorbitol] | >1000 nm | 764.8 nm | Y |  |  |  | Y | 2 | 0.299 | 12.28 |  |  |
| CC(=O)O[C@H]1C(=O)[C@@]2(C)[C@H]([C@H](OC(=O)c3ccccc3)[C@]3(O)C[C@H](OC(=O)[C@H](O)[C@@H](NC(=O)c4ccccc4)c4ccccc4)C(C)=C1C3(C)C)[C@]1(OC(C)=O)CO[C@@H]1C[C@@H]2O [paclitaxel] |  |  |  |  |  |  |  |  |  |  |  | large tumors were noted |
| CCCCCCCCCCCCOS(=O)(=O)[O-].[Na+] [SDS, sodium dodecyl sulfate] |  | >1000 nm |  |  |  |  | Y |  |  |  | unable to prevent NP aggregation |  |
| O=C[C@H](O)[C@@H](O)[C@@H](O)[C@H](O)CO [Galactose] |  | >1000 nm |  |  |  |  | Y |  |  |  | could not prevent NP aggregation at all |  |
